Laboratory results reported in ChEMBL document CHEMBL1135079, “CCR5 antagonists: bicyclic isoxazolidines as conformationally constrained N-1-substituted pyrrolidines” (Bioorg Med Chem Lett, 2002).

biological target: C-C chemokine receptor type 5 (Homo sapiens, UniProt P51681); experiment: Ability to displace [125I]-labeled MIP-1alpha from the C-C chemokine receptor type 5 expressed on CHO cell membranes; settings: not given
Sequence (P51681 whole entry): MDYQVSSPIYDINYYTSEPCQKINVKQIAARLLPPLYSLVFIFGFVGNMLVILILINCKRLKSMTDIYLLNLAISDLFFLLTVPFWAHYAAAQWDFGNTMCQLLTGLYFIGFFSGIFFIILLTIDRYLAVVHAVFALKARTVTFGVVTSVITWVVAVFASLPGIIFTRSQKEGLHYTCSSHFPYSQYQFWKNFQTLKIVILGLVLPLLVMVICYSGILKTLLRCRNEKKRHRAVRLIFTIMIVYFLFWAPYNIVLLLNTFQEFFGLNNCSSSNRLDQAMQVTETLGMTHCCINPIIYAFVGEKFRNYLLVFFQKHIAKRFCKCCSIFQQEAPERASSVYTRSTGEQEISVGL

**Q.** For `c1ccc(CCCC2CCN(C[C@H]3CN4O[C@H](c5ccccc5)C[C@H]4[C@@H]3c3ccccc3)CC2)cc1`, which IC50 is on record?
**A.** 5 nM

**Q.** `c1ccc(C2CCN(C[C@H]3CN4OC5(CCCCC5)C[C@H]4[C@@H]3c3ccccc3)CC2)cc1` was tested. Which IC50 did it give?
**A.** 43 nM

**Q.** `c1ccc(C2CCN(C[C@@H]3[C@@H](c4ccccc4)CN4O[C@H](c5ccccc5)C[C@@H]34)CC2)cc1` was tested. Which IC50 did it give?
**A.** 30 nM

**Q.** For `CCN(C(=O)OCc1ccccc1)C1CCN(C[C@H]2CN3OC4(CCCCC4)C[C@H]3[C@@H]2c2ccccc2)CC1`, which IC50 is on record?
**A.** 5 nM

**Q.** How did the IC50 turn out when `CCN(C(=O)OCc1ccccc1)C1CCN(C[C@@H]2[C@@H](c3ccccc3)CN3O[C@H](c4ccccc4)C[C@@H]23)CC1` was run?
**A.** 46 nM

**Q.** For `C=CCN(C(=O)OCc1ccc([N+](=O)[O-])cc1)C1CCN(C[C@@H]2[C@@H](c3ccccc3)CN3OC4(CCCCC4)C[C@@H]23)CC1`, which IC50 is on record?
**A.** 14 nM

**Q.** Which IC50 does the source give for `c1ccc(CCCC2CCN(C[C@@H]3[C@@H](c4ccccc4)CN4O[C@H](c5ccccc5)C[C@@H]34)CC2)cc1` here?
**A.** 11 nM

**Q.** `CCN(C(=O)OCc1ccccc1)C1CCN(C[C@H]2CN3O[C@H](c4ccccc4)C[C@H]3[C@@H]2c2ccccc2)CC1` was tested. Which IC50 did it give?
**A.** ~27 nM

**Q.** For `C=CCN(C(=O)OCc1ccc([N+](=O)[O-])cc1)C1CCN(C[C@H]2CN3OC4(CCCCC4)C[C@H]3[C@@H]2c2ccccc2)CC1`, which IC50 is on record?
**A.** 0.13 nM

**Q.** For `c1ccc(C2CCN(C[C@@H]3[C@@H](c4ccccc4)CN4OC5(CCCCC5)C[C@@H]34)CC2)cc1`, which IC50 is on record?
**A.** 33 nM

**Q.** For `c1ccc(CCCC2CCN(C[C@H]3CN4OC5(CCCCC5)C[C@H]4[C@@H]3c3ccccc3)CC2)cc1`, which IC50 is on record?
**A.** 8 nM

**Q.** Which IC50 does the source give for `CCN(C(=O)OCc1ccccc1)C1CCN(C[C@@H]2[C@@H](c3ccccc3)CN3OC4(CCCCC4)C[C@@H]23)CC1` here?
**A.** 86 nM

**Q.** For `C=CCN(C(=O)OCc1ccc([N+](=O)[O-])cc1)C1CCN(C[C@@H]2[C@@H](c3ccccc3)CN3O[C@H](c4ccccc4)C[C@@H]23)CC1`, which IC50 is on record?
**A.** 6 nM

**Q.** With `C=CCN(C(=O)OCc1ccc([N+](=O)[O-])cc1)C1CCN(C[C@H]2CN3O[C@H](c4ccccc4)C[C@H]3[C@@H]2c2ccccc2)CC1` as the molecule, how does the IC50 read?
**A.** 2.5 nM

**Q.** `c1ccc(C2CCN(C[C@H]3CN4O[C@H](c5ccccc5)C[C@H]4[C@@H]3c3ccccc3)CC2)cc1` was tested. Which IC50 did it give?
**A.** 27 nM

system: Human immunodeficiency virus 1; experiment: Antiviral activity against BAL strain of HIV using HeLa cell anti-infectivity assay; assay type: functional; settings: Human immunodeficiency virus 1, HeLa

**Q.** How did the IC90 turn out when `c1ccc(CCCC2CCN(C[C@H]3CN4O[C@H](c5ccccc5)C[C@H]4[C@@H]3c3ccccc3)CC2)cc1` was run?
**A.** > 300 nM

**Q.** `CCN(C(=O)OCc1ccccc1)C1CCN(C[C@H]2CN3OC4(CCCCC4)C[C@H]3[C@@H]2c2ccccc2)CC1` was tested. Which IC90 did it give?
**A.** > 300 nM

**Q.** For `C=CCN(C(=O)OCc1ccc([N+](=O)[O-])cc1)C1CCN(C[C@H]2CN3OC4(CCCCC4)C[C@H]3[C@@H]2c2ccccc2)CC1`, which IC90 is on record?
**A.** 33 nM

**Q.** With `c1ccc(CCCC2CCN(C[C@H]3CN4OC5(CCCCC5)C[C@H]4[C@@H]3c3ccccc3)CC2)cc1` as the molecule, how does the IC90 read?
**A.** > 300 nM

**Q.** `C=CCN(C(=O)OCc1ccc([N+](=O)[O-])cc1)C1CCN(C[C@H]2CN(C(=O)C3CCCCC3)C[C@@H]2c2ccccc2)CC1` was tested. Which IC90 did it give?
**A.** 4 nM

**Q.** For `C=CCN(C(=O)OCc1ccc([N+](=O)[O-])cc1)C1CCN(C[C@@H]2[C@@H](c3ccccc3)CN3O[C@H](c4ccccc4)C[C@@H]23)CC1`, which IC90 is on record?
**A.** > 300 nM

**Q.** `C=CCN(C(=O)OCc1ccc([N+](=O)[O-])cc1)C1CCN(C[C@H]2CN3O[C@H](c4ccccc4)C[C@H]3[C@@H]2c2ccccc2)CC1` was tested. Which IC90 did it give?
**A.** 300 nM
